Measured values from US20250223301A1, “KINASE INHIBITORS, PREPARATION METHODS AND USES THEREOF” (InventisBio Co., Ltd., priority 2022, published 2025).
Like-named read-outs stand apart in the source and are kept apart here.

Legend:
[1] = Human microsomal clearance assay; format: in vitro ADME; conditions: pH 7.4; for CLint scaled at 1 μM: human, liver microsomes; for half-life at 1 μM: human liver microsomes 0.5 mg/mL, 1 uM compound
Description: This study aimed to assess the metabolic stability of a compound in human liver microsomes using a microsomal clearance assay.
A mixture containing 100 mM potassium phosphate, pH 7.4, 0.5 mg/mL liver microsomes, 2 mM NADPH, and 1 μM compound were prepared and added to 96-well plate. The plates were then incubated at 37 ? for different time points (0, 5, 15, 30, 45 minutes) and the reaction was stopped with acetonitrile solution containing an internal standard. The samples were then analyzed by LC/MS/MS to determine how much of the compound remained at each time point. The elimination rate constant and half-life were calculated from the data, and the in vitro intrinsic clearance (CLint) was determined as follows: […]

PBMC = assay: Human PBMC IL-2 assay; format: cell-based; conditions: anti-CD3/CD28 stimulation overnight, IL-2 level
Method in brief: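 Healthy-donor frozen PBMC were thawed, rested 4 h at 37 °C and plated at ~200,000 cells/well. Cells were preincubated 60 min at 37 °C with compound solution (10 uM to 0.6 nM, 8 points, 4-fold, as added), then stimulated overnight with anti-CD3/CD28. Supernatant IL-2 was quantified by immunoassay kit and plotted against log compound concentration.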

Jurkat cells = assay: Jurkat IL-2 assay; format: cell-based; conditions: Homo sapiens, anti-CD3/CD28 stimulation overnight, IL-2 level
Method in brief: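 Cells in RPMI-1640 with 10% FBS received compound solution (5 uM to 2.3 nM, 8 points, 3-fold dilution) for 60 minutes at 37° C. They were then stimulated overnight at 37° C. with anti-CD3/CD28 antibody. IL-2 in the supernatant was quantified by immunoassay kit and plotted against log compound concentration.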

[2] = tested on: whole blood from male C57BL6 mice; assay: Mouse whole blood IFN-gamma assay; format: cell-based; conditions: anti-mouse CD3/CD28 0.6 ug/mL, 20 hours
Description: The whole blood from male C57BL6 mice (6-8 weeks old, Beijing Vital River Laboratory Animal Technology Co., Ltd.) was collected, pooled and dispensed at 200 uL per well in a 96-well plate. The blood was treated with compounds for one hour at 37° C. in a humidified 5% CO2 incubator. The blood was then stimulated with anti-mouse CD3 and anti-mouse CD28 antibody (BioLegend Cat #100340, #102116) at a final concentration of 0.6 ug/mL for 20 hours at 37° C. in a humidified 5% CO2 incubator. The blood was spun down, IFN-gamma in the supernatants was measured using ELISA kit (Excellbio Cat #EM002-96, #EM007-96) according the manufacture's instruction.

DGKz = DGKz (Homo sapiens (Human), UniProt Q13574); assay: DGK ADP-Glo kinase assay (DGKz); format: biochemical; conditions: 5 nM DGKz, 15 uM ATP
Description: Luminescence was recorded using an Tecan SPARK microplate reader.

DGKa [3] = biological target: T1, DGKa (Homo sapiens (Human), UniProt P23743);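 also: biochemical DGK kinase assay, ADP-Glo luminescence from ADP made by phosphorylating 1,2-dioleoyl-sn-glycerol, 20 min compound preincubation then 40 min reaction at 25 °C, 1% DMSO control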
Description: (§1) The DGKa and DGKz kinase assays were performed using Promega ADP-Glo kit (Promega, Cat #V9102). One microliter test compound was added to a 384-well plate. Reactions were performed in a 5 uL volume by adding 2 uL mixture of DGK enzyme and ATP in assay buffer (50 mM MOPS pH 7.5, 100 mM NaCl, 10 mM MgCl2, 1 mM CaCl2, 0.0025% BSA, and 1 mM DTT). […] The enzyme solution was incubated with test compound at 25 ? for 20 min. […] The reaction was initiated by the addition of 2 uL of substrate solution (7 uM 1.2-dioleoyl-sn-glycerol, 5 mM octyl-b-D-glucopyranoside) in the 5 uL assay volume. The resulting mixture was incubated at 25° C. for 40 minutes. Next, 5 uL of ADP-Glo-reagent was added to the plate and incubated for 40 minutes. Then 10 uL of kinase detection reagent was added and incubated for 30 minutes. Luminescence was recorded using an Tecan SPARK microplate reader. 1% DMSO vehicle was used as control and no enzyme well was used as blank well.

DGKa [4] = biological target: T1, DGKa; assay: biochemical
Description: as §1

Chain of DGKz (Q13574 whole entry): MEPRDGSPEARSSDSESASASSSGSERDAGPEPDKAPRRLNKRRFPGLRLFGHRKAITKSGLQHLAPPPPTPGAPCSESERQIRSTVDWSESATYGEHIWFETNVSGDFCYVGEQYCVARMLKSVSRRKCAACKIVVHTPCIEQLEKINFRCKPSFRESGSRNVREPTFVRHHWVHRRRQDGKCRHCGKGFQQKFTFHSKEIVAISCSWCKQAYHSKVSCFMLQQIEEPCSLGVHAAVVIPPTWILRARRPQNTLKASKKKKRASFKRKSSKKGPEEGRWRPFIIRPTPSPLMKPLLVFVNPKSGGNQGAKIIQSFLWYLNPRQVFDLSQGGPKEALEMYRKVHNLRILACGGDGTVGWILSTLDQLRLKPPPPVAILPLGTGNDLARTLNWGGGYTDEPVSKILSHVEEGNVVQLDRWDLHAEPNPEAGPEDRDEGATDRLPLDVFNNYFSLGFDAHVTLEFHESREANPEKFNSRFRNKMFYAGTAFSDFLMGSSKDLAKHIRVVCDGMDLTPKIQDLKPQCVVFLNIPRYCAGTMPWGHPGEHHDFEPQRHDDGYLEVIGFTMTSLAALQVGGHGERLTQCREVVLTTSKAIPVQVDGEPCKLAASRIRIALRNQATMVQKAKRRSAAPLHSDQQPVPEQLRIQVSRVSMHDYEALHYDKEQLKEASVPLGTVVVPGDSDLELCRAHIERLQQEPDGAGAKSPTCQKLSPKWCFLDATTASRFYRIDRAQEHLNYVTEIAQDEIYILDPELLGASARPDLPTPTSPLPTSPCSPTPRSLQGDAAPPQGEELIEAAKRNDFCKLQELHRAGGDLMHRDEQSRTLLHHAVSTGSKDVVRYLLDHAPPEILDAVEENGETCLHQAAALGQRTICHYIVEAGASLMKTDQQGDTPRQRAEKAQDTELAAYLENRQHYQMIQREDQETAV
T1 sequence (P23743 whole entry): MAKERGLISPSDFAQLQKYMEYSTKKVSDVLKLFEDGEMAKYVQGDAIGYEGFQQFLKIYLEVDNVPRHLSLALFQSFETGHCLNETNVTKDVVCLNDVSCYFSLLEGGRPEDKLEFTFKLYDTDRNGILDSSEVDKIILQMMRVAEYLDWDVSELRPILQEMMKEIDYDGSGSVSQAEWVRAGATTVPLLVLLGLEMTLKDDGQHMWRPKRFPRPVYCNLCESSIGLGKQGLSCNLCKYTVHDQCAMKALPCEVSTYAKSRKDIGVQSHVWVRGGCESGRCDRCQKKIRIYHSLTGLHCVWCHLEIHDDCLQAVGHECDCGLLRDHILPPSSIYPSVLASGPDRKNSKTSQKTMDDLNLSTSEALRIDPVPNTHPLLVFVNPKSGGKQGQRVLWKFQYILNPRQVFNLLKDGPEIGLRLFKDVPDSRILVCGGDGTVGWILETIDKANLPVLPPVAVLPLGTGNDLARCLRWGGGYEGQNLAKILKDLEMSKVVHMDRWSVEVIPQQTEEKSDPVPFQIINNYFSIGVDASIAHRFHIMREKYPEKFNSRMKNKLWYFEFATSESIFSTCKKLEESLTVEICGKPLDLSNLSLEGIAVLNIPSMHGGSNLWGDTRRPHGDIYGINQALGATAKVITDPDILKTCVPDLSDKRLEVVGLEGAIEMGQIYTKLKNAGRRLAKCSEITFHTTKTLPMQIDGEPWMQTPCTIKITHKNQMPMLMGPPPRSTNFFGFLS

| Compound | EC50 (PBMC) | IC50 (DGKz) | IC50 (DGKa [3]) | further results |
| --- | --- | --- | --- | --- |
| CC[C@@H]1CN2c3c(c(=O)n(C)c4ccc(C#N)nc34)OC[C@@H]2CN1[C@@H](CC)c1ccc(S(F)(F)(F)(F)F)cc1 (stereo in doubt) [Compound 151] | 82 nM | – | – | CLint scaled at 1 μM [1]: 4.1 mL/min/kg; half-life at 1 μM [1]: 7.13 h; EC50 (Jurkat cells): 32 nM |
| CC[C@@H]1CN2c3c(c(=O)n(C)c4ccc(C#N)nc34)OC[C@@H]2CN1[C@@H](CC)c1ccc(F)c(Cl)c1 (stereo in doubt) [Compound 197] | 78 nM | – | – | EC50 (Jurkat cells): 39 nM; EC50 [2]: 312 nM |
| C[C@@H]1CN2c3c(c(=O)n(C)c4ccc(C#N)nc34)OC[C@@H]2CN1[C@@H](C)c1ccc(C(F)(F)F)cc1 (stereo in doubt) [Compound 223] | 47 nM | – | – | CLint scaled at 1 μM [1]: 18.3 mL/min/kg; half-life at 1 μM [1]: 1.58 h; EC50 (Jurkat cells): 70 nM; EC50 [2]: 679 nM |
| CC[C@@H]1CN2c3c(c(=O)n(C)c4ccc(C#N)nc34)OC[C@@H]2CN1[C@@H](CC)c1ccc(C(F)(F)F)c(Cl)c1 (stereo in doubt) [Compound 246] | 23 nM | – | – | CLint scaled at 1 μM [1]: 1.1 mL/min/kg; half-life at 1 μM [1]: 25.7 h; EC50 (Jurkat cells): 30 nM; EC50 [2]: 265 nM |
| [2H]C([2H])([2H])n1c(=O)c2c(c3nc(C#N)ccc31)N1C[C@@H](CC)N([C@@H](CC)c3ccc(C(F)(F)F)cc3)C[C@H]1CO2 (stereo in doubt) [Compound 251] | 50 nM | – | – | CLint scaled at 1 μM [1]: 8.6 mL/min/kg; half-life at 1 μM [1]: 3.38 h; EC50 (Jurkat cells): 51 nM |
| CC[C@@H](c1ccc(Cl)c(Cl)c1)N1C[C@H]2COc3c(c4nc(C#N)ccc4n(C)c3=O)N2C[C@H]1C (stereo in doubt) [Compound 322] | 25 nM | – | – | CLint scaled at 1 μM [1]: 12.4 mL/min/kg; half-life at 1 μM [1]: 2.35 h; EC50 (Jurkat cells): 12 nM; EC50 [2]: 281 nM |
| Cn1c(=O)nc(N2CCC(Oc3ccc(OC(F)(F)F)cc3)CC2)c2nc(C#N)ccc21 [Compound 5] | 728 nM | 126 nM | 427 nM | – |
| Cn1c(=O)c(C(N)=O)c(N2CCC3(CCN(c4ccc(OC(F)(F)F)cc4)C3)CC2)c2nc(C#N)ccc21 [Compound 6] | 1800 nM | 775 nM | 212 nM | – |
| CC[C@H]1CN([C@@H](CC)c2ccc(S(F)(F)(F)(F)F)cc2)[C@H](CC)CN1c1nc(=O)n(C)c2ccc(C#N)nc12 [Compound 28] | – | 50 nM | – | CLint scaled at 1 μM [1]: 7.7 mL/min/kg; half-life at 1 μM [1]: 3.75 h; IC50 (DGKa [4]): 12 nM |
| Cn1c(=O)nc(N2CCC3(CC2)CC(c2ccc(OC(F)(F)F)cc2)=NO3)c2nc(C#N)ccc21 [Compound 31] | – | 24 nM | 20 nM | CLint scaled at 1 μM [1]: 5.1 mL/min/kg; half-life at 1 μM [1]: 5.7 h |
| CC[C@H]1CN([C@@H](CC)c2ccc(C(F)(F)F)cc2)[C@H](CC)CN1c1nc2nncn2c2ccc(C#N)nc12 [Compound 34] | 44 nM | 42 nM | 16 nM | EC50 (Jurkat cells): 67 nM; EC50 [2]: 335 nM |
| Cn1c(=O)nc(N2CCC3(CC2)COC(c2ccc(OC(F)(F)F)cc2)=N3)c2nc(C#N)ccc21 [Compound 36] | – | – | – | CLint scaled at 1 μM [1]: 2.7 mL/min/kg; half-life at 1 μM [1]: 10.9 h |
| Cn1c(=O)nc(N2CCC3(CC2)CC(c2cccc(C(F)(F)F)c2)=NO3)c2nc(C#N)ccc21 [Compound 47] | – | 36 nM | 12 nM | – |
| N#Cc1ccc2c(n1)c(N1CCC3(CC1)CC(c1ccc(C(F)(F)F)cc1)=NO3)nc1nncn12 [Compound 53] | – | 185 nM | 85 nM | – |
| N#Cc1ccc2c(n1)c(N1CCC3(CC1)CC(c1ccc(SC(F)(F)F)cc1)=NO3)nc1nncn12 [Compound 54] | – | 248 nM | 29 nM | – |
| CC[C@H]1CN(C(c2ccc(S(F)(F)(F)(F)F)cc2)c2nc(C3CC3)no2)[C@H](CC)CN1c1nc(=O)n(C)c2ccc(C#N)nc12 (some centres unmarked) [Compound 64] | – | 55 nM | 10 nM | – |
| CC[C@@H]1CN(c2nc(=O)n(C)c3ccc(C#N)nc23)[C@@H](C)CN1[C@@H](c1ccc(F)cc1)c1ccc(SC(F)(F)F)cn1 [Compound 72] | – | 33 nM | 13 nM | – |

| Compound | EC50 (PBMC) | IC50 (DGKz) | IC50 (DGKa [3]) | further results |
| --- | --- | --- | --- | --- |
| CC[C@H]1CN(C(CO)c2ccc(S(F)(F)(F)(F)F)cc2)[C@H](CC)CN1c1nc(=O)n(C)c2ccc(C#N)nc12 (some centres unmarked) [Compound 77] | – | 81 nM | 32 nM | – |
| CC[C@H]1CN(C(COC)c2ccc(S(F)(F)(F)(F)F)cc2)[C@H](CC)CN1c1nc(=O)n(C)c2ccc(C#N)nc12 (some centres unmarked) [Compound 78] | – | 41 nM | 19 nM | – |
| CC[C@@H]1CN(c2nc3nncn3c3ccc(C#N)nc23)[C@@H](CC)CN1C(=O)Nc1ccc(C(F)(F)F)cc1 [Compound 95] | – | 303 nM | 58 nM | – |
| CC[C@H]1CN([C@H](c2ccc(S(F)(F)(F)(F)F)cc2)c2nc(C3CC3)cs2)[C@H](CC)CN1c1nc(=O)n(C)c2ccc(C#N)nc12 [Compound 98] | – | 40 nM | 10 nM | – |
| CC[C@H]1CN([C@@H](c2ccc(S(F)(F)(F)(F)F)cc2)c2nc(C3CC3)cs2)[C@H](CC)CN1c1nc(=O)n(C)c2ccc(C#N)nc12 [Compound 99] | – | 22 nM | 4 nM | – |
| CCC(c1ccc(C23CC(C2)C3)nc1)N1C[C@H](CC)N(c2nc3nncn3c3ccc(C#N)nc23)C[C@H]1CC (some centres unmarked) [Compound 104] | – | 41 nM | 18 nM | – |
| CC[C@@H]1CN2c3c(c(=O)n(C)c4ccc(C#N)nc34)OC[C@H]2CN1[C@@H](CC)c1ccc(C(F)(F)F)cc1 [Compound 107] | – | 136 nM | 9 nM | – |
| CC[C@@H]1CN2c3c(c(=O)n(C)c4ccc(C#N)nc34)OC[C@H]2CN1[C@H](CC)c1ccc(C(F)(F)F)cc1 [Compound 108] | – | 242 nM | 26 nM | – |
| CC[C@H]1CN([C@@H](CC)c2ccc(C(F)(F)F)cc2)[C@H](CC)CN1c1nc2nccn2c2ccc(C#N)nc12 [Compound 109] | – | 71 nM | 6 nM | – |
| CC[C@H]1CN([C@H](CC)c2ccc(C(F)(F)F)cc2)[C@H](CC)CN1c1nc2nccn2c2ccc(C#N)nc12 [Compound 110] | – | 117 nM | 6 nM | – |
| CC[C@H]1CN([C@H]2CCCCc3cc(C(F)(F)F)ccc32)[C@H](CC)CN1c1nc2nncn2c2ccc(C#N)nc12 [Compound 113] | – | 161 nM | 44 nM | – |
| CC[C@H]1CN([C@@H]2CCCCc3cc(C(F)(F)F)ccc32)[C@H](CC)CN1c1nc2nncn2c2ccc(C#N)nc12 [Compound 114] | – | 4 nM | 30 nM | – |
| CC[C@H]1CN([C@@H](CC)c2nc(C3CC3)no2)[C@H](CC)CN1c1nc2nncn2c2ccc(C#N)nc12 [Compound 119] | – | 21 nM | 3 nM | – |
| CC[C@H]1CN([C@H](CC)c2nc(C3CC3)no2)[C@H](CC)CN1c1nc2nncn2c2ccc(C#N)nc12 [Compound 120] | – | 352 nM | 10 nM | – |
| CC[C@@H]1CN2c3c(c(=O)n(C)c4ccc(C#N)nc34)CC[C@@H]2CN1[C@H](CC)c1ccc(C(F)(F)F)cc1 [Compound 332] | 64 nM | – | – | CLint scaled at 1 μM [1]: 6.9 mL/min/kg; half-life at 1 μM [1]: 4.23 h; EC50 (Jurkat cells): 130 nM |
| CC[C@@H]1CN2c3c(c4nncn4c4ccc(C#N)nc34)OC[C@@H]2CN1[C@@H](CC)c1ccc(C(F)(F)F)cc1 [Compound 334] | 31 nM | – | – | EC50 (Jurkat cells): 26 nM; EC50 [2]: 241 nM |
